Data on 17 molecules can be found in patent publication US9266904B2, “6-bridged heteroaryldihydropyrimidines for the treatment and prophylaxis of hepatitis B virus infection” (priority 2013, dated 2016).

By EC50 is commonly meant the concentration that produces a half-maximal response.

The assay deals with HBV replication in HepG2.2.15 cells. Description: Anti-HBV activity in vitro in HepG2.2.15 cells (extracellular HBV DNA by qPCR). The class given is cell-based. The following applies: Hepatitis B virus, HepG2.2.15, Anti-HBV activity in HepG2.2.15 cells; read-out: EC50. The source says: HepG2.2.15 and HepDE19 are stably-transfected cell lines containing the HBV genome. Both cell lines are derived from the hepatoblastoma cell line Hep G2 (American Type Culture Collection, ATCC® HB-8065™) by the published procedures described in references: M A Selles et al. Proc. Natl. Acad. Sci. USA 1987, 84, 1005-1009 and H Guo et al. Journal of Virology 2007, 81, 12472-12484, respectively. Both cell lines were maintained in Dulbecco's modified Eagle's medium (DMEM)-F12 medium supplemented with 10% fetal bovine serum, 100 U/mL penicillin, 100 μg/mL streptomycin, and 0.5 mg/mL of G418.
While HepG2.2.15 cells constitutively support HBV replication and production of virus particles, HepDE19 cells are inducible by tetracycline. Addition of 1 μg/mL tetracycline in culture medium suppresses HBV replication in HepDE19 cells, whereas switching to tetracycline-free medium resumes this process.
HepG2.2.15 cells were seeded into 96-well plates (3×10^4 cells in 100 μL media per well) and incubated overnight at 37° C. The test compounds were serially half-log diluted in DMSO, then diluted 100 times in culture media. 100 μL diluted compounds were added into the plates to reach 0.5% final concentration of DMSO in every well. Five days after compound treatment, culture supernatant was collected for further analysis.
For quantitative PCR detection of extracellular HBV DNA, 100 μL culture supernatant was collected and processed in MagNA Pure 96 Nucleic Acid Purification System (Roche Applied Science) for viral DNA extraction. The extracted samples were subjected to HBV DNA quantification by qPCR. The effective compound concentration at which HBV replication is inhibited by 50% (EC50) was determined.
The Examples were tested in the above assays as described herein and found to have EC50<1 μM in HepG2.2.15 assay.
A general note: Quantitative PCR measures a nucleic acid by following its amplification.
As to `COC(=O)C1=C(CN2C3CC(F)(F)C2C[C@](O)(CC(=O)O)C3)NC(c2nccs2)=N[C@H]1c1cccc(F)c1Cl` (stereo partly drawn) [Example 121, 2-[(3S)-8-[[(4R)-4-(2-chloro-3-fluoro-phenyl)-5-methoxycarbonyl-2-thiazol-2-yl-1,4-dihydropyrimidin-6-yl]methyl]-6,6-difluoro-3-hydroxy-8-azabicyclo[3.2.1]octan-3-yl]acetic acid], the EC50 turned out to be 33 nM. To `COC(=O)C1=C(CN2C3COCC2C(O)C3)NC(c2nccs2)=N[C@H]1c1ccc(F)cc1Cl` (mixture of isomers) [Example 49, Methyl (4R)-4-(2-chloro-4-fluoro-phenyl)-6-[(6-hydroxy-3-oxa-8-azabicyclo[3.2.1]octan-8-yl)methyl]-2-thiazol-2-yl-1,4-dihydropyrimidine-5-carboxylate] belongs 17.2 nM; to `COC(=O)C1=C(CN2C3CC(F)(F)C2C[C@@H]3C(=O)O)NC(c2nccs2)=N[C@H]1c1ccc(F)cc1Cl` (stereo partly drawn) [Example 151, (5S)-7-[[(4R)-4-(2-chloro-4-fluoro-phenyl)-5-methoxycarbonyl-2-thiazol-2-yl-1,4-dihydropyrimidin-6-yl]methyl]-2,2-difluoro-7-azabicyclo[2.2.1]heptane-5-carboxylic acid], 29.5 nM; to `COC(=O)C1=C(CN2C3COCC2CC(C(=O)OC)C3)NC(c2nccs2)=N[C@H]1c1ccc(F)cc1Br` (stereo partly drawn) [Example 4, 9-[(R)-6-(2-Bromo-4-fluoro-phenyl)-5-methoxycarbonyl-2-thiazol-2-yl-3,6-dihydro-pyrimidin-4-ylmethyl]-3-oxa-9-aza-bicyclo[3.3.1]nonane-7-carboxylic acid methyl ester], 39 nM. To `CCOC(=O)C1=C(CN2C3COCC2CC(N)(C(=O)O)C3)NC(c2nccs2)=N[C@H]1c1cccc(F)c1F` (stereo partly drawn) [Example 140, 7-amino-9-[[(4R)-4-(2,3-difluorophenyl)-5-ethoxycarbonyl-2-thiazol-2-yl-1,4-dihydropyrimidin-6-yl]methyl]-3-oxa-9-azabicyclo[3.3.1]nonane-7-carboxylic acid] belongs 103 nM; to `COC(=O)C1=C(CN2[C@H]3C[C@H](CC(=O)O)C[C@@H]2C(F)(F)C3)NC(c2nccs2)=N[C@H]1c1ccc(F)c(F)c1C` [Example 112, 2-[(1S,3S,5R)-8-[[(4S)-4-(3,4-difluoro-2-methyl-phenyl)-5-methoxycarbonyl-2-thiazol-2-yl-1,4-dihydropyrimidin-6-yl]methyl]-6,6-difluoro-8-azabicyclo[3.2.1]octan-3-yl]acetic acid], 35.8 nM; to `COC(=O)C1=C(CN2C3COCC2C(F)C3)NC(c2nccs2)=N[C@H]1c1ccc(F)cc1Cl` (stereo partly drawn) [Example 51, Methyl (4R)-4-(2-chloro-4-fluoro-phenyl)-6-[(6-fluoro-3-oxa-8-azabicyclo[3.2.1]octan-8-yl)methyl]-2-thiazol-2-yl-1,4-dihydropyrimidine-5-carboxylate], 14.9 nM. To `COC(=O)C1=C(CN2[C@@H]3COC[C@H]2CC(OCC(=O)O)C3)NC(c2nccs2)=N[C@H]1c1ccc(F)c(F)c1` (stereo partly drawn) [Example 47, 2-[[(1R,5S)-9-[[(4S)-4-(3,4-difluorophenyl)-5-methoxycarbonyl-2-thiazol-2-yl-1,4-dihydropyrimidin-6-yl]methyl]-3-oxa-9-azabicyclo[3.3.1]nonan-7-yl]oxy]acetic acid] belongs 295 nM. In the case of `COC(=O)C1=C(CN2C3COCC2C(F)c2oncc23)NC(c2nccs2)=N[C@H]1c1ccc(F)cc1Cl` (stereo partly drawn) [Example 106, (4R)-4-(2-Chloro-4-fluoro-phenyl)-6-(7-fluoro-5,10-dioxa-4,12-diaza-tricyclo[6.3.1.0*2,6*]dodeca-2(6),3-dien-12-ylmethyl)-2-thiazol-2-yl-1,4-dihydropyrimidine-5-carrboxylic acid methyl ester], the EC50 is 8.5 nM. For `COC(=O)C1=C(CN2CC3CCC(C2)O3)NC(c2nccs2)=N[C@H]1c1ccc(F)cc1Cl` [Example 142, Methyl (4R)-4-(2-chloro-4-fluoro-phenyl)-6-(8-oxa-3-azabicyclo[3.2.1]octan-3-ylmethyl)-2-thiazol-2-yl-1,4-dihydropyrimidine-5-carboxylate], the concentration for a half-maximal effect (EC50) was 130 nM. To `COC(=O)C1=C(CN2CC3CC2C(F)(F)C3)NC(c2nccs2)=N[C@H]1c1ccc(F)cc1Cl` (stereo partly drawn) [Example 144, Methyl (4R)-4-(2-chloro-4-fluoro-phenyl)-6-[(5,5-difluoro-3-azabicyclo[2.2.1]heptan-3-yl)methyl]-2-thiazol-2-yl-1,4-dihydropyrimidine-5-carboxylate] belongs 94 nM; to `COC(=O)C1=C(CN2C3CNC(=O)C2COC3)NC(c2nccs2)=N[C@H]1c1ccc(F)cc1Cl` (stereo partly drawn) [Example 133, Methyl (4R)-4-(2-chloro-4-fluoro-phenyl)-6-[(6-oxo-3-oxa-7,9-diazabicyclo[3.3.1]nonan-9-yl)methyl]-2-thiazol-2-yl-1,4-dihydropyrimidine-5-carboxylate], 34 nM; to `COC(=O)C1=C(CN2C3CC(F)(F)C2C[C@](O)(CC(=O)O)C3)NC(c2nccs2)=N[C@H]1c1ccc(F)c(F)c1C` (stereo partly drawn) [Example 119, 2-[(3S)-8-[[(4S)-4-(3,4-difluoro-2-methyl-phenyl)-5-methoxycarbonyl-2-thiazol-2-yl-1,4-dihydropyrimidin-6-yl]methyl]-6,6-difluoro-3-hydroxy-8-azabicyclo[3.2.1]octan-3-yl]acetic acid], 21.3 nM.

`CCOC(=O)C1=C(CN2C3COCC2CC(N)(C(=O)O)C3)NC(c2nccs2)=N[C@H]1c1ccc(F)cc1Br` (stereo partly drawn) [Example 141, 7-amino-9-[[(4R)-4-(2-bromo-4-fluoro-phenyl)-5-ethoxycarbonyl-2-thiazol-2-yl-1,4-dihydropyrimidin-6-yl]methyl]-3-oxa-9-azabicyclo[3.3.1]nonane-7-carboxylic acid]: the concentration for a half-maximal effect (EC50) came to 271 nM.

Turning to `CCOC(=O)CC1(O)CC2COCC(C1O)N2CC1=C(C(=O)OC)[C@H](c2ccc(F)cc2Cl)N=C(c2nccs2)N1` (stereo partly drawn) [Example 138, Methyl (4R)-4-(2-chloro-4-fluoro-phenyl)-6-[[7-(2-ethoxy-2-oxo-ethyl)-6,7-dihydroxy-3-oxa-9-azabicyclo[3.3.1]nonan-9-yl]methyl]-2-thiazol-2-yl-1,4-dihydropyrimidine-5-carboxylate], the EC50 is 58.2 nM. `CCOC(=O)C(C)(C)N1CC2COCC(C1)N2CC1=C(C(=O)OC)[C@H](c2ccc(F)cc2Cl)N=C(c2nccs2)N1` [Example 20, (R)-4-(2-Chloro-4-fluoro-phenyl)-6-[7-(1-ethoxycarbonyl-1-methyl-ethyl)-3-oxa-7,9-diaza-bicyclo[3.3.1]non-9-ylmethyl]-2-thiazol-2-yl-1,4-dihydro-pyrimidine-5-carboxylic acid methyl ester]: the EC50 is 35 nM.

Regarding `COC(=O)C1=C(CN2CC3CC2CC3(F)F)NC(c2nccs2)=N[C@H]1c1ccc(F)cc1Cl` (stereo partly drawn) [Example 143, Methyl (4R)-4-(2-chloro-4-fluoro-phenyl)-6-[(5,5-difluoro-2-azabicyclo[2.2.1]heptan-2-yl)methyl]-2-thiazol-2-yl-1,4-dihydropyrimidine-5-carboxylate], the concentration for a half-maximal effect (EC50) was 41 nM.
